Source: US20240288345A1, “FLUORESCENT STAINING METHOD” (OSAKA UNIVERSITY, priority 2022, published 2024)

Legend:
[1] = test system: colonic tissue analyte, crypt structure and neutrophils; experiment: 3D imaging of ulcerative colitis histopathological analyte (Test Example D); design: species or system human; conditions: cleared, whole-mount 3D staining
Method: (§1) A formaldehyde-fixed tissue specimen was washed with PBS, and was subsequently immersed in a 50% (v/v) CUBIC-L reagent (mixture containing water and the CUBIC-L reagent at 1:1) overnight. Further, the specimen was immersed in the CUBIC-L reagent at 37° C. for 5 days or 6 days while being gently shaken. Next, each of those specimens was washed with PBS, was immersed in 30% (w/v) of sucrose in the PBS, and was frozen in O.C.T. COMPOUND at −80° C. overnight. Next, the frozen specimen was thawed, was washed with PBS, and was immersed in a 0.5% solution of periodic acid (HIO;) (86171, MUTO PURE CHEMICALS CO., LTD.) at room temperature for 30 minutes. […] A cleared tissue specimen thus obtained was subjected to 3D imaging with a confocal fluorescence microscope or a light-sheet fluorescence microscope. A wavelength of 488 nm was applied as the excitation wavelength of each of FAM hydrazide, Compound 1, Alexa Fluor 488 hydrazide, BDP FL hydrazide, and fluorescein, and the fluorescence detection wavelength range of each of these materials was from 490 nm to 562 nm. […]

human colonic polyp = experiment: 3D imaging of human colonic polyp with light-sheet microscope (Test Example G); conditions: with propidium iodide counterstain
Method: as §1

[2] = test system: human colonic mucosal tissue; experiment: Clearing and whole-mount 3D fluorescent staining of human colonic mucosal tissue (Test Example B)
Method: CUBIC-L and CUBIC-R+reagents (T3740 and T3741, Tokyo Chemical Industry Co., Ltd.) were used in tissue clearing. Atissue removal procedure is simply described below.
A formaldehyde-fixed tissue specimen was washed with PBS, and was subsequently immersed in a 50% (v/v) CUBIC-L reagent (mixture containing water and the CUBIC-L reagent at 1:1) overnight. Further, the specimen was immersed in the CUBIC-L reagent at 37° C. for 5 days or 6 days while being gently shaken. Next, each of those specimens was washed with PBS, was immersed in 30% (w/v) of sucrose in the PBS, and was frozen in O.C.T. COMPOUND at −80° C. overnight. […] After having been washed with PBS, the specimen was stained by being gently shaken at room temperature for 2 days or 3 days together with FAM hydrazide, 5-isomer (50 μM), Compound 1 (50 μM), Alexa Fluor 488 hydrazide (50 µM), BDP FL hydrazide ([…]), or fluorescein (50 µM) in PBS containing 0.5% (v/v) of Triton X-100 (12967, Nacalai Tesque, Inc.). When nuclear counterstaining was performed, propidium iodide (PI) (10 μg/mb, P21493, Life Technologies Corporation) or RedDot-2 (1:100, 40061-T, Biotium, Inc.) was also added to the staining solution. After the staining step, the specimen was washed with PBS, and was immersed in a 50% (v/v) CUBIC-R+reagent (mixture containing water and the CUBIC-R+reagent at 1:1) overnight. Further, the specimen was immersed in the CUBIC-R+reagent for 1 day or 2 days while being gently shaken. A cleared tissue specimen thus obtained was subjected to 3D imaging with a confocal fluorescence microscope or a light-sheet fluorescence microscope. A wavelength of 488 nm was applied as the excitation wavelength of each of FAM hydrazide, Compound 1, Alexa Fluor 488 hydrazide, BDP FL hydrazide, and fluorescein, and the fluorescence detection wavelength range of each of these materials was from 490 nm to 562 nm.
A 3D image was obtained by using a confocal microscope (Zeiss LSM880 Confocal/Multiphoton, Carl Zeiss AG) or a light-sheet fluorescence microscope (Zeiss Lightsheet 7, Carl Zeiss AG), All pieces of raw image data were reconstructed and analyzed with Imaris software (version 9.2.1, Bitplane Inc.).
A human colonic mucosal tissue after its formalin fixation, which had been excised into a square about 4 mm on a side, was subjected to clearing treatment and to whole-mount 3D tissue staining through use of FAM hydrazide, Alexa Fluor 488 hydrazide, BDP FL hydrazide, or fluorescein as a stain.

[3] = test system: neutrophil in colonic tissue analyte; experiment: Whole-mount 3D staining of ulcerative colitis colonic tissue analyte (Test Example C); design: species or system human; conditions: cleared
Method: as §1

[4] = test system: goblet cell mucus of human colorectal mucosal tissue; experiment: Fluorescent staining of frozen sliced specimen of human colonic mucosa (Test Example A)
Method: A tissue to be stained was washed with phosphate buffered saline (PBS), was immersed in 30% (w/v) of sucrose in the PBS, and was frozen in O.C.T. COMPOUND (45833, Sakura Finetek) at −80° ° C. overnight. The frozen tissue was cut into a thickness of 10 μm with a cryostat (CM3050 S, Leica Biosystems). The resultant frozen section was washed with PBS three times, and was subjected to pretreatment with a 0.5% solution of periodic acid (HIOA) (86171, MUTO PURE CHEMICALS CO., LTD.) at room temperature for 30 minutes. The section was washed with PBS three times, and was incubated in FAM hydrazide, 5-isomer((50 µM, 24170, BroadPharm, in this description, sometimes referred to as “FAM hydrazide”), Alexa Fluor 488 hydrazide (50 μM, A10436, ThermoFisher Scientific, Inc.), BDP FL hydrazide (50 μM, 11470, Lumiprobe Corporation), or fluorescein (50 µM, FUJIFILM Wako Pure Chemical Corporation) diluted with PBS at room temperature overnight. After that, the section was washed with PBS and an image thereof was obtained with a confocal microscope.
A section of a human colorectal mucosal tissue sampled from the non-tumor region of a surgical specimen of colorectal cancer was subjected to fluorescent staining through use of FAM hydrazide, Alexa Fluor 488 hydrazide, BDP FL hydrazide, or fluorescein serving as a fluorescent skeleton as a stain.

[5] = test system: fungal hyphae in a pulmonary aspergillosis tissue; experiment: 3D imaging of fungal hyphae (Test Example H); conditions: with RedDot 2 counterstain, confocal microscope
Method: as §1

## NNC(=O)c1ccc2c(c1)C(=O)OC21c2ccc(O)cc2Oc2cc(O)ccc21 [FAM hydrazide, FAM hydrazide, 5-isomer]
[1]
  Three-dimensional observation of pathological crypt structure of ulcerative colitis: enabled the three-dimensional observation
Human colonic polyp
  Observation of surface layer structure of human colonic polyp: able to be observed
[2]; CUBIC clearing, periodic acid, 50 μM, 2-3 days, excitation 488 nm
  3D imaging signal of cleared tissue: clear stereoscopic image
[2]; cleared tissue, 3D staining
  Staining of goblet cell and basement membrane in crypt of colonic mucosa: clearly stained
[2]; cleared tissue, confirmed with anti-MPO antibody
  Staining of neutrophil in 3D tissue staining: clearly stained
[2]; no HIO4 oxidation, CUBIC reagent
  3D staining signal without oxidation treatment with HIO4: no positive signal was observed
[2]; summary of Examples and Test Examples
  Staining property for a sample having a thickness after clearing treatment: significantly excellent
[3]
  Stained image of neutrophil in 3D imaging: clear stained image
[4]; 10 μm frozen section, 0.5% periodic acid pretreatment, 50 μM overnight
  Fluorescent staining signal in goblet cell mucus, sliced section: clear positive image
[4]; no HIO4 oxidation
  Fluorescent staining signal without oxidation treatment with HIO4, sliced section: not obtained
[5]
  Visualization of structures of fungal hyphae: clearly visualized
